Reference: patent publication US11535606B2, “Substituted quinoline-8-carbonitrile derivatives with androgen receptor degradation activity and uses thereof” (ACCUTAR BIOTECHNOLOGY INC., priority 2019, dated 2022)
Changes are numbered by the printed parent chain.

Experiments:
Assay type in all cases: cell-based
Conditions in all cases: 24 hours after administration, DC50 = concentration needed for 50% target protein degradation
[1] = target: T1, androgen receptor (AR) (Homo sapiens, UniProt P10275, T878A); assay: AR degradation activity in LNCAP cells (Western blot)
T1 construct: endogenous in cells; host or cells: LNCAP
T1 sequence (P10275 1-920 T878A): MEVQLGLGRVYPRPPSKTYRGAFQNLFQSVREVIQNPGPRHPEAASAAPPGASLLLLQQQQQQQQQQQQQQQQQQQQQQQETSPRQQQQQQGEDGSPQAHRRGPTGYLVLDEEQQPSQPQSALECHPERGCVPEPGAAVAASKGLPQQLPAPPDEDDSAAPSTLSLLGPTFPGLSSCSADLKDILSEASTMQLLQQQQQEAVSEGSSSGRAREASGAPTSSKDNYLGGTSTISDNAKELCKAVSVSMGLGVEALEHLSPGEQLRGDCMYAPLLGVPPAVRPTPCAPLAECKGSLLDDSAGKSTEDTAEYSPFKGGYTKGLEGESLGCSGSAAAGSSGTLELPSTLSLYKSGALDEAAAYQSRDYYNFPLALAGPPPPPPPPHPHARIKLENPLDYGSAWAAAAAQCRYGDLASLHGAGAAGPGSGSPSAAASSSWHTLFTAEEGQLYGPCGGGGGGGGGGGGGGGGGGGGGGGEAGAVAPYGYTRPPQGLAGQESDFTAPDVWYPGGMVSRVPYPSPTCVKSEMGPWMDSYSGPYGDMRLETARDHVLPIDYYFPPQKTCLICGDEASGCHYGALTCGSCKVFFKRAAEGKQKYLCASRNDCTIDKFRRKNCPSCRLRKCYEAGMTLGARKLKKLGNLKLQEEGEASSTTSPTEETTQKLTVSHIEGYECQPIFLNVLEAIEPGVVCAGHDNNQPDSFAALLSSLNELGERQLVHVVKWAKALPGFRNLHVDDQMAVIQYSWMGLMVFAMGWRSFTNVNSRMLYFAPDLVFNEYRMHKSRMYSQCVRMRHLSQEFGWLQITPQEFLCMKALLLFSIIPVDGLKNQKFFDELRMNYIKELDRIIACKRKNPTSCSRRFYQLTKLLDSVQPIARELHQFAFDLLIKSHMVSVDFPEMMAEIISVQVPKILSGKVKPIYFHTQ
Method: (§1) LNCAP, VCAP and 22Rv1 cells were plated in 24-well plates at 1.5×10E5 cells/well in the RPMI growth medium containing 10% FBS and 1% Penicillin Streptomycin, and then incubated at 37° C. overnight. The following day, the test compound was administered to the cells by using 1000× compound stock solution prepared in DMSO at various concentrations. After administration of the compound, the cells were then incubated at 37° C. for 24 hours. Upon completion, the cells were washed with PBS and protein was collected in Laemmli sample buffer (1×; VWR International). Proteins in cell lysate were separated by SDS-PAGE and transferred to Odyssey nitrocellulose membranes (Licor) with Iblot® dry blotting transfer system (ThermoFisher). Nonspecific binding was blocked by incubating membranes with Intercept Blocking Buffer (Licor) for 1 hour at room temperature with gentle shaking. The membranes were then incubated overnight at 4° C. with Primary antibodies rabbit anti-AR (1:1,000, Cell Signaling, 5153) and mouse anti-GAPDH (1:5,000, Santa Cruz Biotechnology, sc-47724) diluted in Intercept Blocking Buffer containing 0.1% Tween 20. After washing 3 times with TBS-T, the membranes were incubated with IRDye® 800CW goat anti-mouse IgG (1:20,000, Licor) or IRDye® 800CW goat anti-rabbit IgG (1:20,000, Licor) for 1 hour. After TBS-T washes, membranes were rinsed in TBS and scanned on Odyssey® CLx Imaging System (Licor). The bands were quantified using Image Studio™ Software (Licor).
(§2) Table 4 summarizes the androgen receptor (AR) degradative activity of exemplary compounds in LNCAP, VCAP and 22Rv1 cell lines 24 hours after administration. DC50: compound concentration needed for 50% target protein degradation.

[2] = target: T2, androgen receptor (AR) (Homo sapiens, UniProt P10275); assay: AR degradation activity in VCAP cells (Western blot)
T2 construct: endogenous in cells; host or cells: VCAP
T2 sequence (P10275 1-920): T1 sequence (P10275 1-920 T878A) with A878T
Method: as §1, §2

[3] = test system: androgen receptor (AR); assay: AR degradation activity in 22Rv1 cells (Western blot)
Method: as §1, §2

Row | SMILES | DC50 [1] [nM] | DC50 [2] [nM] | DC50 [3] [nM]
1 | N#Cc1ccc(O[C@H]2CC[C@H](NC(=O)c3ccc(N4CCC(CCN5CCN(c6ccc7c(c6)C(=O)N(C6CCC(=O)NC6=O)C7=O)CC5)CC4)cc3)CC2)c2cccnc12 (relative stereo) [Compound 3-22, trans-N-(4-((8-cyanoquinolin-5-yl)oxy)cyclohexyl)-4-(4-(2-(4-(2-(2,6-dioxopiperidin-3-yl)-1,3-dioxoisoindolin-5-yl)piperazin-1-yl)ethyl)piperidin-1-yl)benzamide] | < 10 | < 10 | 
2 | N#Cc1ccc(OC2CCC(NC(=O)c3cnc(N4CCC(CN5CCN(c6ccc7c(c6)CN([C@H]6CCC(=O)NC6=O)C7=O)CC5)CC4)nc3)CC2)c2cccnc12 (some centres unmarked) [Compound 3-30] | < 10 | < 10 | 
3 | N#Cc1ccc(O[C@H]2CC[C@H](NC(=O)c3ccc(N4CCC(CN5CCN(c6ccc7c(c6)CN([C@H]6CCC(=O)NC6=O)C7=O)CC5)CC4)nc3)CC2)c2cccnc12 [Compound 3-29, trans-N-(4-((8-cyanoquinolin-5-yl)oxy)cyclohexyl)-6-(4-((4-(2-((S)-2,6-dioxopiperidin-3-yl)-1-oxoisoindolin-5-yl)piperazin-1-yl)methyl)piperidin-1-yl)nicotinamide] | < 10 | < 10 | < 10
4 | N#Cc1ccc(O[C@H]2CC[C@H](NC(=O)c3ccc(N4CCC(CN5CCN(c6ccc7c(c6)C(=O)N(C6CCC(=O)NC6=O)C7=O)CC5)CC4)nn3)CC2)c2cccnc12 (stereo partly drawn) [Compound 3-16, trans-N-(4-((8-cyanoquinolin-5-yl)oxy)cyclohexyl)-6-(4-((4-(2-(2,6-dioxopiperidin-3-yl)-1,3-dioxoisoindolin-5-yl)piperazin-1-yl)methyl)piperidin-1-yl)pyridazine-3-carboxamide] | < 10 | < 10 | 
5 | N#Cc1ccc(O[C@H]2CC[C@H](NC(=O)c3ccc(N4CCC(CN5CCN(c6ccc7c(c6)C(=O)N(C6CCC(=O)NC6=O)C7=O)CC5)CC4)nc3)CC2)c2cccnc12 (relative stereo) [Compound 3-13, trans-N-(4-((8-cyanoquinolin-5-yl)oxy)cyclohexyl)-6-(4-((4-(2-(2,6-dioxopiperidin-3-yl)-1,3-dioxoisoindolin-5-yl)piperazin-1-yl)methyl)piperidin-1-yl)nicotinamide] | < 10 | < 10 | 
6 | N#Cc1ccc(OC2CCC(NC(=O)c3ccc(N4CCC(CN5CCN(c6cc7c(cc6F)C(=O)N(C6CCC(=O)NC6=O)C7=O)CC5)CC4)nn3)CC2)c2cccnc12 (centres unmarked) [Compound 3-36] | < 10 | < 10 | < 10
7 | N#Cc1ccc(O[C@H]2CC[C@H](NC(=O)c3ccc(N4CCC(CN5CCN(c6ccc7c(c6)C(=O)N(C6CCC(=O)NC6=O)C7=O)CC5)CC4)cc3)CC2)c2cccnc12 (some centres unmarked) [Compound 3-18, N-(4-((8-cyanoquinolin-5-yl)oxy)cyclohexyl)-4-(4-((4-(2-(2,6-dioxopiperidin-3-yl)-1,3-dioxoisoindolin-5-yl)piperazin-1-yl)methyl)piperidin-1-yl)benzamide] | < 10 | < 10 | 
8 | N#Cc1ccc(O[C@H]2CC[C@H](NC(=O)c3cnc(N4CCC(CN5CCN(c6ccc7c(c6)C(=O)N(C6CCC(=O)NC6=O)C7=O)CC5)CC4)nc3)CC2)c2cccnc12 (stereo partly drawn) [Compound 3-15, trans-N-(4-((8-cyanoquinolin-5-yl)oxy)cyclohexyl)-2-(4-((4-(2-(2,6-dioxopiperidin-3-yl)-1,3-dioxoisoindolin-5-yl)piperazin-1-yl)methyl)piperidin-1-yl)pyrimidine-5-carboxamide] | < 10 | < 10 | 
9 | N#Cc1ccc(O[C@H]2CC[C@H](NC(=O)c3ccc(N4CCC(CN5CCN(c6ccc7c(c6)CN([C@H]6CCC(=O)NC6=O)C7=O)CC5)CC4)c(F)c3)CC2)c2cccnc12 [Compound 3-31, trans-N-(4-((8-cyanoquinolin-5-yl)oxy)cyclohexyl)-4-(4-((4-(2-((S)-2,6-dioxopiperidin-3-yl)-1-oxoisoindolin-5-yl)piperazin-1-yl)methyl)piperidin-1-yl)-3-fluorobenzamide] | < 10 | < 10 | < 10
10 | N#Cc1ccc(OC2CCC(NC(=O)c3ccc(N4CCC(CN5CCN(c6ccc7c(c6)C(=O)N(C6CCC(=O)NC6=O)C7=O)CC5)CC4)c(F)c3)CC2)c2cccnc12 (centres unmarked) [Compound 3-19, N-(4-((8-cyanoquinolin-5-yl)oxy)cyclohexyl)-4-(4-((4-(2-(2,6-dioxopiperidin-3-yl)-1,3-dioxoisoindolin-5-yl)piperazin-1-yl)methyl)piperidin-1-yl)-3-fluorobenzamide] | < 10 | < 10 | 
